For assay [1], the target named is T1, Ephrin type-B receptor 1 (Homo sapiens) (UniProt P54762).
T1 sequence (whole entry): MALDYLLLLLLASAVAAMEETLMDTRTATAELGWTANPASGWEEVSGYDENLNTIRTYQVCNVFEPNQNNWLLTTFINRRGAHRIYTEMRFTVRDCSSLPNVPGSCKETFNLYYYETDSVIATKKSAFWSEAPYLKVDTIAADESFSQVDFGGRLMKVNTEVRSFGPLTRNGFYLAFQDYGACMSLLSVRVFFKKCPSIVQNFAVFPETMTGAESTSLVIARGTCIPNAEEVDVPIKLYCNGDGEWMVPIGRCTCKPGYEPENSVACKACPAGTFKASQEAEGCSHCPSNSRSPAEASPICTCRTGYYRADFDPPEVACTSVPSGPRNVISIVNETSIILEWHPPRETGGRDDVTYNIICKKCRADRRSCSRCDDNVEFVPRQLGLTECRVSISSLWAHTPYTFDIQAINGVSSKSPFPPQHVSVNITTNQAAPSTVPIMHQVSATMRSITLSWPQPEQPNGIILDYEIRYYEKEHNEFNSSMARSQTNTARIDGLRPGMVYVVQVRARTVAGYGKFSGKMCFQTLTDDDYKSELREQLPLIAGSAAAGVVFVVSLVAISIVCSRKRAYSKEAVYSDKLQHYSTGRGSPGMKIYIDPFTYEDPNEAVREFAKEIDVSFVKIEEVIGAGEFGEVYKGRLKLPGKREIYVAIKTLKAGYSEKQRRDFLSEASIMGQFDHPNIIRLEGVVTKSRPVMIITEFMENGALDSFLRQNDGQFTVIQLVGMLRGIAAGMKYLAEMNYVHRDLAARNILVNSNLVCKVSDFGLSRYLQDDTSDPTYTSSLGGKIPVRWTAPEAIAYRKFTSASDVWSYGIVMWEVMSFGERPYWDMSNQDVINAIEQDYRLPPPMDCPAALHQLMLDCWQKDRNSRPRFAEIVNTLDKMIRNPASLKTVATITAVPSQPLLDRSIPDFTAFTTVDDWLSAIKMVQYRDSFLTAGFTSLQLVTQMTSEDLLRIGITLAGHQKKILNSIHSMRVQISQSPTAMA
The assay is described as follows: Selectivity interaction (KinomeScan (DiscoverX)) EUB0000607a EPHB1. The settings on record: at 10 µM.

Assay [2] deals with Mast/stem cell growth factor receptor Kit (Homo sapiens), P10721 [A829P]. The settings on record: at 10 µM.
Mast/stem cell growth factor receptor Kit (Homo sapiens), P10721 [A829P], sequence (P10721 whole entry A829P): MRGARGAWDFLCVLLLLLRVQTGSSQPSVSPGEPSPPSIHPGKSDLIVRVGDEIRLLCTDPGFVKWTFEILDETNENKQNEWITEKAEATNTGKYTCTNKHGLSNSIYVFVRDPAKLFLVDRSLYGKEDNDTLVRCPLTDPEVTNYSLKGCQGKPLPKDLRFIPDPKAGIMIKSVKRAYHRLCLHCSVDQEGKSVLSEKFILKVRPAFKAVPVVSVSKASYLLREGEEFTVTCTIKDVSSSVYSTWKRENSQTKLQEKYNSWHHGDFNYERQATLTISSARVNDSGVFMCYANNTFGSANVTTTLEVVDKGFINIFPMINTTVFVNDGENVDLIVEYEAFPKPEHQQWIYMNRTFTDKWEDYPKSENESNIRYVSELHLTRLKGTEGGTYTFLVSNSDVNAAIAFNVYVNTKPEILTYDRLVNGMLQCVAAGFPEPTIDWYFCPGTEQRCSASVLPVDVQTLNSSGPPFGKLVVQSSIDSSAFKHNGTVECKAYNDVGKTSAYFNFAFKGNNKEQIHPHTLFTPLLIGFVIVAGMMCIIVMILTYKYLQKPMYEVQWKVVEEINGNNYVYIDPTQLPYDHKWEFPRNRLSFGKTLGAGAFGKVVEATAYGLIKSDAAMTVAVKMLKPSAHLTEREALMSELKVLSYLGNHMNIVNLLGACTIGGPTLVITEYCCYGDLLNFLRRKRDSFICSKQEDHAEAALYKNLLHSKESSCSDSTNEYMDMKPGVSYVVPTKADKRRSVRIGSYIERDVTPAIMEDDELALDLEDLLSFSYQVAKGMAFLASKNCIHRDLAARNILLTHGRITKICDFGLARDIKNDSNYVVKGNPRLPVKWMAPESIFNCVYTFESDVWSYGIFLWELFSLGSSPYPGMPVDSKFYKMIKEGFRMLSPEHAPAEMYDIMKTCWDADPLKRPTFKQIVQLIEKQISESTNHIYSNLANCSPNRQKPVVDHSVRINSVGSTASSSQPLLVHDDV
Assay [3] deals with Tyrosine-protein kinase Fes/Fps (Homo sapiens) (UniProt P07332). The assay is described as follows: Selectivity interaction (Kinase panel (DSF assay)) EUB0001558a FES. Background: DSF heats the sample and reads unfolding from a dye or from intrinsic fluorescence.
Tyrosine-protein kinase Fes/Fps (Homo sapiens), sequence (P07332 whole entry): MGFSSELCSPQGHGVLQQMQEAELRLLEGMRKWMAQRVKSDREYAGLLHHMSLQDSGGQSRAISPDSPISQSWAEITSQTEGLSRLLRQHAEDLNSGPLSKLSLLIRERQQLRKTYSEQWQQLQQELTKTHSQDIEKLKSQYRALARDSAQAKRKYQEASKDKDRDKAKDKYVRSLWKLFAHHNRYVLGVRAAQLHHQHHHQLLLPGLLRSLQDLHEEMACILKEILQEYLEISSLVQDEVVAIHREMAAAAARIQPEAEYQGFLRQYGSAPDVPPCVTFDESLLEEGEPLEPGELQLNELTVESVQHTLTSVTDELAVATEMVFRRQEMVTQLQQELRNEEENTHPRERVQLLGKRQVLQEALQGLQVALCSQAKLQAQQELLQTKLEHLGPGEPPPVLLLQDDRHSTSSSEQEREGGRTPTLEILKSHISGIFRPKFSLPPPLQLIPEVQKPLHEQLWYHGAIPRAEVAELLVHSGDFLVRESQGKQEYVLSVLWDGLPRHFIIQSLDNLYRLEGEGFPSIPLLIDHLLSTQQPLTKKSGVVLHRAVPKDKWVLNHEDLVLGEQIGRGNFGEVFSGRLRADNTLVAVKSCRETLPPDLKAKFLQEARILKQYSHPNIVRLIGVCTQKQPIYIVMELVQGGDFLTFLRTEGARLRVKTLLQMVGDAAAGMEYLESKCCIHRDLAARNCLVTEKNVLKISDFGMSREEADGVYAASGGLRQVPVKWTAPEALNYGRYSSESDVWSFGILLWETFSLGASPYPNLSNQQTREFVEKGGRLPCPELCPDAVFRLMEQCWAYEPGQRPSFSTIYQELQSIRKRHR
The target in assay [4] is Tyrosine-protein kinase CSK (Homo sapiens) (UniProt P41240). The assay is described as follows: Selectivity interaction (ActivX KiNativ screen (kinase selectivity in THP-1 cell lysates)) EUB0000639a CSK. The class given is subcellular. As to conditions: lysate, at 0.2 µM.
Tyrosine-protein kinase CSK (Homo sapiens), sequence (P41240 2-450 limits assumed): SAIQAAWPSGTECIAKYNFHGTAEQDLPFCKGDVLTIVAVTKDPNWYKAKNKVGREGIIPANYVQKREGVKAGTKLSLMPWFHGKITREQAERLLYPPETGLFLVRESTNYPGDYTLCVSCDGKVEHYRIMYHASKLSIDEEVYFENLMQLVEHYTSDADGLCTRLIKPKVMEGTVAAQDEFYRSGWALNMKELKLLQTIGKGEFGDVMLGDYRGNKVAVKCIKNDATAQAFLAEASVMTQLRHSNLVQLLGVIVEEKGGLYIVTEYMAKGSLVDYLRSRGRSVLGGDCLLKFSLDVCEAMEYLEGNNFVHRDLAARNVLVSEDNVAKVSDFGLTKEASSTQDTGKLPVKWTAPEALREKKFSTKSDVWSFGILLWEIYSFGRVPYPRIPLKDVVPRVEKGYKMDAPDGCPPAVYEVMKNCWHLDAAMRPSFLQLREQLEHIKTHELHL
Assay [5] concerns the target T2, Serine/threonine-protein kinase 3 (Homo sapiens) (UniProt Q13188).
T2 sequence (whole entry): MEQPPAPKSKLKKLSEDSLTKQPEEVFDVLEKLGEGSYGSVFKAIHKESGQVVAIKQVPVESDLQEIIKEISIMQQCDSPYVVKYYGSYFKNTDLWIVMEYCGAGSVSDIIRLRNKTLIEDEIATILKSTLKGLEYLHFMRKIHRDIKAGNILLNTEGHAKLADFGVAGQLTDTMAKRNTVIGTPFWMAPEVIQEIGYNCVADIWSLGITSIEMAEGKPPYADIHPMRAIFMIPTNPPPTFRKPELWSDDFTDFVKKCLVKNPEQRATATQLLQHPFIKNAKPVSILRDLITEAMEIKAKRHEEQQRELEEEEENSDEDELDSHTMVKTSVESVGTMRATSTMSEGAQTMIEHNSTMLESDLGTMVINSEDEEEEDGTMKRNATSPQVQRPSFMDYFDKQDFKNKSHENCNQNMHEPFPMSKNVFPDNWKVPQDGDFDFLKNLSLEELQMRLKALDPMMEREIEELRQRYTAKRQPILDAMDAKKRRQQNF
Nature of the assay: Selectivity interaction (KinomeScan (DiscoverX)) EUB0001049a STK3. The settings on record: at 1 µM.

The target in assay [6] is T3, Serine/threonine-protein kinase Nek9 (Homo sapiens) (UniProt Q8TD19).
T3 sequence (whole entry): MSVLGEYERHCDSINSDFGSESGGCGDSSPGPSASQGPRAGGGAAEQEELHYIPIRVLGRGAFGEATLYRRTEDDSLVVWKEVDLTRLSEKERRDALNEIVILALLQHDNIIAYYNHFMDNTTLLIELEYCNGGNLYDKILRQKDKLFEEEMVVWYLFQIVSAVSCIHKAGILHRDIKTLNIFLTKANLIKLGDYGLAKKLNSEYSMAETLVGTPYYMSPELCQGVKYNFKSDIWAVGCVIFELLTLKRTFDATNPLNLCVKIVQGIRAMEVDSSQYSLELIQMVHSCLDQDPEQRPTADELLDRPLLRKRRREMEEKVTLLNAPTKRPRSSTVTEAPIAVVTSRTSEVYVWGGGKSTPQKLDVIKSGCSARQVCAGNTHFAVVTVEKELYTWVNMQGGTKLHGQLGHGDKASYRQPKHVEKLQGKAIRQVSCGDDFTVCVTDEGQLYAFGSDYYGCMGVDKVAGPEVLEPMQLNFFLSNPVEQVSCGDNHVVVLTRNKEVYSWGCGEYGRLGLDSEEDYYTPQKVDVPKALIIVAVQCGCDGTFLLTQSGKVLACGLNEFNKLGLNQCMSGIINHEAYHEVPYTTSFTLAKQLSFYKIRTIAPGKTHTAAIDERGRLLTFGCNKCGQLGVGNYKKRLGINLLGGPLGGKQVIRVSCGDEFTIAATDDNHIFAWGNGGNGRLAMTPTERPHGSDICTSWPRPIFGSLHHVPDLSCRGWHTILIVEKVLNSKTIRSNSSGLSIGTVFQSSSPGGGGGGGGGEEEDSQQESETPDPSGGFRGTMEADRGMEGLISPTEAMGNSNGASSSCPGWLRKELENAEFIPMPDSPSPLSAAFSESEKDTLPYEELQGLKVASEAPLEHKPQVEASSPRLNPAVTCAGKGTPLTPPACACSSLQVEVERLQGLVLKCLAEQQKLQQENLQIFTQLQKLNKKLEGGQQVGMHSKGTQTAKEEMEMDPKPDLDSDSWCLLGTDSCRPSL
Nature of the assay: Selectivity interaction (KinomeScan (DiscoverX)) EUB0000695a NEK9. The settings on record: at 100 nM.

In turn, `CNC(=O)Nc1ccc(-c2nc(N3CC4CCC(C3)O4)c3cnn(C4CCC5(CC4)OCCO5)c3n2)cc1` came in with a % of control in assay [1] of 90%.

For the molecule `Cc1cc([C@@H](C)Nc2ccccc2C(=O)O)c2nc(N3CCOCC3)cc(=O)n2c1` [AZD-6482], the % of control in assay [2] worked out at 100%.

In assay [3], `CC(C)(O)[C@H](F)CN1Cc2cc(NC(=O)c3cnn4cccnc34)c(N3CCOCC3)cc2C1=O` had a dTM of 0.3 K.

As for `CC[C@@H]1[C@H](F)C(=O)N[C@@H]1COc1nccc2cc(C(N)=O)c(OC)cc12` [ZIMLOVISERTIB], the % of inhibition in assay [4] is -6.8%.

Turning to `COc1cc(Nc2nc(C)cc(-c3cnn4nc(OC)ccc34)n2)cc(C(F)(F)F)c1`, the % of control in assay [5] worked out at 100%.

`Cc1cc(F)c(C(=O)Nc2cccc(-c3nncn3C(C)C)n2)cc1-n1cnc(C2CC2)c1`: the % of control in assay [6] stood at 100%.

The record behind these values is ChEMBL document CHEMBL5465560, “Selectivity Literature for EUbOPEN Chemogenomic Library” (2024).
